pIC50: −log10 of the molar value. Values after ≈ are worked out from the molar mass of the structure shown.
How the values were obtained:
[1] = Solubility of the compound in Dulbecco's PBS at 20 degree C measured after 24 hrs
[2] = Inhibition of P-gp efflux in MDCKII-MDR1 cells using calcein-AM as substrate assessed as intracellular calcein fluorescence preincubated for 15 mins followed by substrate addition and measured by fluorescence based assay; type: cell-based; settings: Canis lupus familiaris
Staphylococcus aureus [3] = assay: Antibacterial activity against multi drug-resistant Staphylococcus aureus USA300 FPR3757 assessed as inhibition of visible growth incubated for 20 to 24 hrs by microbroth serial dilution assay; type: functional; settings: time 20-24 hrs, read-out: MIC100
Streptococcus pneumoniae = assay: Antibacterial activity against Streptococcus pneumoniae assessed as inhibition of visible growth incubated for 20 to 24 hrs by microbroth serial dilution assay; type: functional; settings: time 20-24 hrs, read-out: MIC100
Enterococcus faecalis = assay: Antibacterial activity against Enterococcus faecalis assessed as inhibition of visible growth incubated for 20 to 24 hrs by microbroth serial dilution assay; type: functional; settings: time 20-24 hrs, read-out: MIC100
Enterococcus faecium [4] = assay: Antibacterial activity against Vancomycin-resistant Enterococcus faecium assessed as inhibition of visible growth incubated for 20 to 24 hrs by microbroth serial dilution assay; type: functional; settings: time 20-24 hrs, read-out: MIC100
Enterococcus faecium [5] = assay: Antibacterial activity against Linezolid/Ampicillin/ciprofloxacin/Vancomycin-resistant Enterococcus faecium assessed as inhibition of visible growth incubated for 20 to 24 hrs by microbroth serial dilution assay; type: functional; settings: time 20-24 hrs, read-out: MIC100
[6] = Apparent permeability from apical to basolateral side in human Caco-2 cells at 100 uM measured upto 120 mins by LC-MS analysis; type: ADME, cell-based
[7] = Apparent permeability from apical to basolateral side in human Caco-2 cells at 280 uM measured upto 120 mins by LC-MS analysis; type: ADME, cell-based
[8] = Apparent permeability from basolateral to apical side in human Caco-2 cells at 100 uM measured upto 120 mins by LC-MS analysis; type: ADME, cell-based
[9] = Apparent permeability from basolateral to apical side in human Caco-2 cells at 280 uM measured upto 120 mins by LC-MS analysis; type: ADME, cell-based
[10] = Efflux ratio of apparent permeability from basolateral to apical side over apical to basolateral side in human Caco-2 cells at 100 uM and measured after 120 mins by LC-MS analysis; type: ADME, cell-based
[11] = Efflux ratio of apparent permeability from basolateral to apical side over apical to basolateral side in human Caco-2 cells at 280 uM and measured after 120 mins by LC-MS analysis; type: ADME, cell-based
[12] = Plasma protein binding in human at 5 to 15 uM incubated for 5 hrs by LC-MS analysis; type: ADME, cell-free; settings: dose 5-15 µM, read-out: PPB (converted)
Cytochrome P450 3A4 = Cytochrome P450 3A4 (Homo sapiens, UniProt P08684); assay: Inhibition of human CYP3A4 incubated for 60 mins by red fluorescent-probe-based microsomal assay; type: ADME
[13] = molecular target: Voltage-gated inwardly rectifying potassium channel KCNH2 (Homo sapiens, UniProt Q12809); assay: Inhibition of hERG expressed in HEK293 cells assessed as tail current measured after 8 mins by automated whole-cell Qpatch Clamp assay
hERG (KCNH2) = hERG (KCNH2) (Homo sapiens, UniProt Q12809); assay: Inhibition of hERG expressed in HEK293 cells assessed as tail current at 60 uM measured after 8 mins by automated whole-cell Qpatch Clamp assay relative to control; settings: HEK293 cells that express hERG
MDCK-MDR1 = assay: Cytotoxicity against MDCKII-MDR1 cells assessed as cell viability at 100 uM measured by MTT assay; type: toxicity, cell-based, Canis lupus familiaris; settings: dog, mdck-mdr1, 100 µM
Staphylococcus aureus [14] = assay: Antibacterial activity against multi drug-resistant Staphylococcus aureus USA300 FPR3757 assessed as reduction in bacterial growth at 1 times of MIC concentration measured at first 12 hrs by time-kill assay; type: functional
Staphylococcus aureus [15] = assay: Antibacterial activity against multi drug-resistant Staphylococcus aureus USA300 FPR3757 assessed as reduction in bacterial growth at 4 times of MIC concentration measured after 6 hrs by time-kill assay; type: functional
Staphylococcus aureus [16] = assay: Antibacterial activity against multi drug-resistant Staphylococcus aureus USA300 FPR3757 assessed as reduction in bacterial growth of original inoculum at 4 times of MIC concentration measured after 24 hrs by time-kill assay; type: functional
Staphylococcus aureus [17] = assay: Antibacterial activity against multi drug-resistant Staphylococcus aureus USA300 FPR3757 assessed as reduction in bacterial growth of original inoculum at 4 times of MIC concentration measured after 24 hrs by time-kill assay relative to control; type: functional
[18] = Bioavailability in NMRI female mouse at 20 mg/kg, sc by HPLC analysis; type: ADME, organism-based; settings: in vivo
[19] = Tmax in NMRI female mouse at 60 mg/kg, sc by HPLC analysis; type: ADME, organism-based; settings: in vivo
[20] = Clearance in NMRI female mouse at 30 mg/kg, iv by HPLC analysis; type: ADME, organism-based; settings: in vivo
[21] = Volume of distribution in NMRI female mouse at 30 mg/kg, iv by HPLC analysis; type: ADME, organism-based; settings: in vivo
[22] = Tmax in NMRI female mouse at 30 mg/kg, po by HPLC analysis; type: ADME, organism-based; settings: in vivo
[23] = Clearance in pig plasma at 3 mg/kg, iv measured upto 240 mins by LC-MS/MS analysis; type: ADME, organism-based, Sus scrofa
[24] = Cmax in pig urine at 3 mg/kg, iv measured upto 240 mins by LC-MS/MS analysis; type: ADME, organism-based, Sus scrofa
[25] = Elimination rate constant in pig urine at 3 mg/kg, iv measured upto 240 mins by LC-MS/MS analysis; type: ADME, organism-based, Sus scrofa
[26] = AUC (0 to infinity) in pig plasma at 10 mg/kg, po measured upto 240 mins by LC-MS/MS analysis; type: ADME, organism-based, Sus scrofa; settings: in vivo, 4 h
[27] = Elimination rate constant in pig urine at 10 mg/kg, po measured upto 240 mins by LC-MS/MS analysis; type: ADME, organism-based, Sus scrofa
in vitro [28] = settings: mouse, liver microsomes
in vitro [29] = settings: mouse, liver microsomes; remark: listed apart in the source
in vitro [30] = settings: human, liver microsomes
in vitro [31] = settings: human, liver microsomes; remark: listed apart in the source
in vitro [32] = settings: pig, liver microsomes
in vitro [33] = settings: pig, liver microsomes; remark: listed apart in the source
[34] = molecular target: ATP-dependent translocase ABCB1 (Homo sapiens, UniProt P08183); assay: Inhibition of P-gp in human Caco-2 cells using digoxin as substrate; type: cell-based
[35] = Cardio-toxicity in human assessed as QT prolongation by measuring increase in mean QTc
Staphylococcus aureus [36] = assay: Induction of resistant development in lefamulin 5 passages resistance developed Staphylococcus aureus USA300 FPR3757 assessed as fold increase in MIC at sub-MIC concentration measured after 25 passages with conjugate by serial passage assay; type: functional
Staphylococcus aureus [37] = assay: Induction of resistant development in linezolid 5 passages resistance developed Staphylococcus aureus USA300 FPR3757 assessed as fold increase in MIC at sub-MIC concentration measured after 9 passages with conjugate by serial passage assay; type: functional

Cytochrome P450 3A4, sequence (P08684 whole entry): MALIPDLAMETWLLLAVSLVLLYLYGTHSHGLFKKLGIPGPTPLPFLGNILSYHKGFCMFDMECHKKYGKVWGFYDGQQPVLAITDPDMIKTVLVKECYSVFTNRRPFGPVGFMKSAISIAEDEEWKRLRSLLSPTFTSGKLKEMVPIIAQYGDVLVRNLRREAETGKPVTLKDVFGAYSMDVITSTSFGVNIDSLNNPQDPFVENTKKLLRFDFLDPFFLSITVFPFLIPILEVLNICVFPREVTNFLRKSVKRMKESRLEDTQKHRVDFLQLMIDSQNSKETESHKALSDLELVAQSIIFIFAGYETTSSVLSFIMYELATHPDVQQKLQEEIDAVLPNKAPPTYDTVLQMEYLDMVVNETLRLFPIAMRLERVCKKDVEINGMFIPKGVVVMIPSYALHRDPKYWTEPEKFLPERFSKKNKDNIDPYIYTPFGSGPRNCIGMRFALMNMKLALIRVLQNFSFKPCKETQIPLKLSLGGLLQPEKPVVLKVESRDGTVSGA
hERG (KCNH2), sequence (Q12809 whole entry): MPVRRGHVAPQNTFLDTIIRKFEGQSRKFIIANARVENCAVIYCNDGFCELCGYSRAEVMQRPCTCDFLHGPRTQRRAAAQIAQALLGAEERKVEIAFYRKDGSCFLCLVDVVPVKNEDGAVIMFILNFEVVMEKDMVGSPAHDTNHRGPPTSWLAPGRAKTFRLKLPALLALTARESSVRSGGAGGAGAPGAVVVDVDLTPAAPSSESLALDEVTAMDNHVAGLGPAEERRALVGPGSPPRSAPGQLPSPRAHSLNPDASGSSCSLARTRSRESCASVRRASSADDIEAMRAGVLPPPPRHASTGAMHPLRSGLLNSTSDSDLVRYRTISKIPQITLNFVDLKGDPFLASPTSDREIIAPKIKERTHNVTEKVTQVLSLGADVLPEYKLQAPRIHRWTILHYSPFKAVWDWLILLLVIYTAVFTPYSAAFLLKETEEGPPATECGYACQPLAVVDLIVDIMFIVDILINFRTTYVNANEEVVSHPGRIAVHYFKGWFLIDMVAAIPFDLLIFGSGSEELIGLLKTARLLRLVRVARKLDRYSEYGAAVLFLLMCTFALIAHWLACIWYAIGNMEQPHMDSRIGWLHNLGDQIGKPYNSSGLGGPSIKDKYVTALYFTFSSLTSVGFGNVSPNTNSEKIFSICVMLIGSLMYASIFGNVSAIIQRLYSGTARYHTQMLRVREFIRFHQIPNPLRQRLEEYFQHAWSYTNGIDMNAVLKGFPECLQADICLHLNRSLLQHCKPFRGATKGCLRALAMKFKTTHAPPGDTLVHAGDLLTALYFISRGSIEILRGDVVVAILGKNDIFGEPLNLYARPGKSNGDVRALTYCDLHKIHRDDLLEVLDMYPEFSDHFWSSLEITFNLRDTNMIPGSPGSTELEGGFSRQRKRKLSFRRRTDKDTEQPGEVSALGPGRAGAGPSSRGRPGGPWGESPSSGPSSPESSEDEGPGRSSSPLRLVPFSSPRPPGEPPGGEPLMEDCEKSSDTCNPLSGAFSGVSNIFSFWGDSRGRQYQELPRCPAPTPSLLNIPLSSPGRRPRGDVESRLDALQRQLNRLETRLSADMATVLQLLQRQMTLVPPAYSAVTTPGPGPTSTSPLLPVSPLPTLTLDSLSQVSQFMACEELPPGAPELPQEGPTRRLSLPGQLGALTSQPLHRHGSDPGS
Voltage-gated inwardly rectifying potassium channel KCNH2, sequence (Q12809 whole entry): as above
ATP-dependent translocase ABCB1, sequence (P08183 whole entry): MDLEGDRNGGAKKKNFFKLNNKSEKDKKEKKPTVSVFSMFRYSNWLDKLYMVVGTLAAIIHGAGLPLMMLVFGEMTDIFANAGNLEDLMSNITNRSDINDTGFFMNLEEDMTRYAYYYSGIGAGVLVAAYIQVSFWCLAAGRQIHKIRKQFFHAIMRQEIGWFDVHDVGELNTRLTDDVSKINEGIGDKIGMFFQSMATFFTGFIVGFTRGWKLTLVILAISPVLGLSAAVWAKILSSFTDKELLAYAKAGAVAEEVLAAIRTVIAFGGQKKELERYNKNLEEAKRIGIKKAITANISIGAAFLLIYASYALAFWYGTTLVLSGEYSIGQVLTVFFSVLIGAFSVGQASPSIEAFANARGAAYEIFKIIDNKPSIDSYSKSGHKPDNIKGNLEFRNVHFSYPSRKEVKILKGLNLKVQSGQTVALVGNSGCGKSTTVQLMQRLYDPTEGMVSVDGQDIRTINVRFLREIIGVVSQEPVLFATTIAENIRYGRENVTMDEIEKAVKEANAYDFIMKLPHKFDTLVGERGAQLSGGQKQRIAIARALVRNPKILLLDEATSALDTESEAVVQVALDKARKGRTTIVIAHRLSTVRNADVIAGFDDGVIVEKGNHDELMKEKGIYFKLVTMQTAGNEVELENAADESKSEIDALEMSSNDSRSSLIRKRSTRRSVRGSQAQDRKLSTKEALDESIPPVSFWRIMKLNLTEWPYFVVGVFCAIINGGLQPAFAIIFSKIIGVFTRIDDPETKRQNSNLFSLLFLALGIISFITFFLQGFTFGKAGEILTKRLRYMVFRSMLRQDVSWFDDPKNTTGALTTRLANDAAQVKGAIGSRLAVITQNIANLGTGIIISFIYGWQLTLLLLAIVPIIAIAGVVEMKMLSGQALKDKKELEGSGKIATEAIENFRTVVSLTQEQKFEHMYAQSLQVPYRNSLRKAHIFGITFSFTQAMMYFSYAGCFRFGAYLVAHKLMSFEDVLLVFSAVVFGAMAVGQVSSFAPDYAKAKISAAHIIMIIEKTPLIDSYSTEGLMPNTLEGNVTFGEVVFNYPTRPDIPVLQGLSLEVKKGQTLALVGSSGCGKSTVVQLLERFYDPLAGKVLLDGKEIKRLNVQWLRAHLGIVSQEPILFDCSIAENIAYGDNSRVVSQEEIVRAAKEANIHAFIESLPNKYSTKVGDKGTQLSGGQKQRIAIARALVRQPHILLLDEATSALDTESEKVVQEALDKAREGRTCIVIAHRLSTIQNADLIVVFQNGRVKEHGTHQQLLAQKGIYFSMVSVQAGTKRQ

## C=C[C@]1(C)C[C@@H](OC(=O)Cn2cc(-c3ccc(Cn4cnc5c(N6CCNCC6)ncnc54)nc3)nn2)[C@]2(C)[C@H](C)CC[C@]3(CCC(=O)[C@H]32)[C@@H](C)[C@@H]1O
[1]
  solubility at 24 h: 114 µM (≈ 82.4 µg/mL)
[2]
  pIC50: 4.33
Staphylococcus aureus [3]
  MIC: 0.12 µg/mL (≈ 0.166 µM)
Streptococcus pneumoniae
  MIC: 0.03 µg/mL (≈ 0.0415 µM)
Enterococcus faecalis
  MIC: 0.12 µg/mL (≈ 0.166 µM)
Enterococcus faecium [4]
  MIC: 0.03 µg/mL (≈ 0.0415 µM)
Enterococcus faecium [5]
  MIC: 0.12 µg/mL (≈ 0.166 µM)
[6]
  Papp A→B at 2 h, 100 µM: 0.48 ×10⁻⁶ cm/s
[7]
  Papp A→B at 2 h, 280 µM: 2.12 ×10⁻⁶ cm/s
[8]
  Papp B→A at 2 h, 100 µM: 23 ×10⁻⁶ cm/s
[9]
  Papp B→A at 2 h, 280 µM: 5.34 ×10⁻⁶ cm/s
[10]
  efflux ratio at 2 h, 100 µM: 48
[11]
  efflux ratio at 2 h, 280 µM: 2.5
[12]
  fraction unbound at 5 h, up to 15 µM: 0.27
Cytochrome P450 3A4
  pIC50: 6.39
[13]
  pIC50: < 3.70
hERG (KCNH2)
  inhibition at 8 min, 60 µM: 27.4%
MDCK-MDR1
  Activity: Non-Toxic
Staphylococcus aureus [14]
  Activity: 2 log10CFU/ml
Staphylococcus aureus [15]
  Activity: ~3 log10CFU/ml
Staphylococcus aureus [16]
  Activity: 3 log10CFU/ml
Staphylococcus aureus [17]
  inhibition (INH): 99.9%
[18]
  bioavailability: 52%
[19]
  Tmax: 15 min
[20]
  clearance: 69.8 mL/min/kg
[21]
  Vd: 3.5 L/kg
[22]
  Tmax: 15 min
[23]
  clearance: 84.7 mL/min/kg
[24]
  Cmax: 18700 ng/mL
[25]
  k el at 4 h: 0.000418 s⁻¹
[26]
  AUC: 7.1 µg/mL/min
[27]
  k el at 4 h: 8.67e-05 s⁻¹
In vitro [28]
  half-life at 0.5 h, 1 µM: 5.9 min
In vitro [29]
  CLint scaled at 0.5 h, 1 µM: 929 mL/min/kg
In vitro [30]
  half-life at 0.5 h, 1 µM: 3.7 min
In vitro [31]
  CLint scaled at 0.5 h, 1 µM: 1710 mL/min/kg
In vitro [32]
  half-life at 0.5 h, 1 µM: 1.3 min
In vitro [33]
  CLint scaled at 0.5 h, 1 µM: 4200 mL/min/kg

## C=C[C@]1(C)C[C@@H](OC(=O)CS[C@@H]2CC[C@@H](N)C[C@H]2O)[C@]2(C)[C@H](C)CC[C@]3(CCC(=O)[C@H]32)[C@@H](C)[C@@H]1O [LEFAMULIN]
[34]
  pIC50: 4.47
[35]
  QTc increase: 10 ms
[1]
  solubility at 24 h: 1920 µM (≈ 973 µg/mL)
[2]
  pIC50: 4.37
Staphylococcus aureus [3]
  MIC: 0.12 µg/mL (≈ 0.236 µM)
Streptococcus pneumoniae
  MIC: 0.25 µg/mL (≈ 0.492 µM)
Enterococcus faecalis
  MIC: 0.06 µg/mL (≈ 0.118 µM)
Enterococcus faecium [4]
  MIC: 0.12 µg/mL (≈ 0.236 µM)
Enterococcus faecium [5]
  MIC: 0.12 µg/mL (≈ 0.236 µM)
[6]
  Papp A→B at 2 h, 100 µM: 0.63 ×10⁻⁶ cm/s
[7]
  Papp A→B at 2 h, 280 µM: 3.19 ×10⁻⁶ cm/s
[8]
  Papp B→A at 2 h, 100 µM: 25.7 ×10⁻⁶ cm/s
[9]
  Papp B→A at 2 h, 280 µM: 12.5 ×10⁻⁶ cm/s
[10]
  efflux ratio at 2 h, 100 µM: 40.8
[11]
  efflux ratio at 2 h, 280 µM: 3.9
[12]
  fraction unbound at 5 h, up to 15 µM: 0.34
Cytochrome P450 3A4
  pIC50: 6.12
[13]
  pIC50: 3.90
hERG (KCNH2)
  inhibition at 8 min, 60 µM: 32.8%
MDCK-MDR1
  Activity: Non-Toxic
Staphylococcus aureus [14]
  Activity: 2 log10CFU/ml
Staphylococcus aureus [15]
  Activity: 2.5 log10CFU/ml
Staphylococcus aureus [16]
  Activity: 3 log10CFU/ml
Staphylococcus aureus [17]
  inhibition (INH): 99.9%
Staphylococcus aureus [36]
  fold change (FC): 64
Staphylococcus aureus [37]
  fold change (FC): 8
In vitro [28]
  half-life at 0.5 h, 1 µM: 11.5 min
In vitro [29]
  CLint scaled at 0.5 h, 1 µM: 478 mL/min/kg
In vitro [30]
  half-life at 0.5 h, 1 µM: 4.3 min
In vitro [31]
  CLint scaled at 0.5 h, 1 µM: 1460 mL/min/kg
In vitro [32]
  half-life at 0.5 h, 1 µM: 15.3 min
In vitro [33]
  CLint scaled at 0.5 h, 1 µM: 359 mL/min/kg
